Data taken from US11866720B2, “Transgenic or non-transgenic plants with mutated protoporphyrinogen oxidase having increased tolerance to herbicides” (priority 2013, dated 2024).
Several values for one entry are separate records, joined by “and”; a condition that tells them apart may be missing. Identical values can stand only once.

Experiments:
[1] = system: transgenic soybean expressing mutated PPO; test: Soybean segregating T1 individuals, greenhouse spray test (injury 0-9); type: in vivo, Glycine max; details: 1 week after treatment
[2] = system: transgenic Arabidopsis thaliana plants expressing wildtype or mutated PPO; test: Germination / growth inhibition assay of transgenic Arabidopsis T2 seeds in 48-well plates; details: growth inhibition seven to ten days after seeding

Structure (SMILES): Cc1nn(-c2cc(NS(C)(=O)=O)c(Cl)cc2Cl)c(=O)n1C(F)F [Sulfentrazon, sulfentrazone]
- injury (0-9 point scale) ([1]; SDS10791 AmtuPPX2L R128A_F420I, Sulfentrazone 350 g ai/ha): 9 (5×) and 2 (2×) and 1
- injury (0-9 point scale) ([1]; SDS10791 AmtuPPX2L R128A_F420I, Sulfentrazone 700 g ai/ha): 3 (3×) and 4 and 9 (3×) and 2
- injury (0-9 point scale) ([1]; SDS-10642 AmtuPPX2L R128A_F420L, Sulfentrazone 350 g ai/ha): 1 (2×) and 0 (3×) and 3 (2×) and 2
- injury (0-9 point scale) ([1]; SDS-10648 AmtuPPX2L R128A_F420I, Sulfentrazone 350 g ai/ha): 3 (3×) and 4 (2×) and 5 (2×) and 8
- injury (0-9 point scale) ([1]; SDS-10648 AmtuPPX2L R128A_F420I, Sulfentrazone 700 g ai/ha): 3 (2×) and 2 and 9 and 4 (4×)
- injury (0-9 point scale) ([1]; SDS-10652 AmtuPPX2L L397D_F420V, Sulfentrazone 350 g ai/ha): 9 and 6 and 3 (2×) and 5 (2×)
- injury (0-9 point scale) ([1]; SDS-10787 AmtuPPX2L R128A_F420L, Sulfentrazone 350 g ai/ha): 5 (4×) and 4 and 6 and 9 (2×)
- injury (0-9 point scale) ([1]; SDS-10985 AmtuPPX2L R128A_F420M, Sulfentrazone 350 g ai/ha): 3 (4×) and 8 and 4 and 1
- injury (0-9 point scale) ([1]; SDS-10985 AmtuPPX2L R128A_F420M, Sulfentrazone 700 g ai/ha): 1 and 9 (2×) and 2 (2×) and 3 (2×) and 4
- injury (0-9 point scale) ([1]; SDS-10990 AmtuPPX2L R128A_F420M, Sulfentrazone 350 g ai/ha): 3 (4×) and 4 (2×) and 9 (2×)
- injury (0-9 point scale) ([1]; SDS-10990 AmtuPPX2L R128A_F420M, Sulfentrazone 700 g ai/ha): 3 and 4 (4×) and 9 (3×)
- injury (0-9 point scale) ([1]; SDS-11034 AmtuPPX2L R128A_F420V, Sulfentrazone 350 g ai/ha): 1 (3×) and 3 (2×) and 9 and 0
- injury (0-9 point scale) ([1]; wild type, Sulfentrazone 350 g ai/ha): 9 (5×) and 7 (2×) and 8
- Relative tolerance rate as compared to a non-transgenic Arabidopsis plant (non-transgenic = 1.0) ([2]; transgenic Arabidopsis AMATU_PPO2_F420I): 193
- Relative tolerance rate as compared to a non-transgenic Arabidopsis plant (non-transgenic = 1.0) ([2]; transgenic Arabidopsis AMATU_PPO2_F420L): 111
- Relative tolerance rate as compared to a non-transgenic Arabidopsis plant (non-transgenic = 1.0) ([2]; transgenic Arabidopsis AMATU_PPO2_F420M): 161
- Relative tolerance rate as compared to a non-transgenic Arabidopsis plant (non-transgenic = 1.0) ([2]; transgenic Arabidopsis AMATU_PPO2_R128A_F420I): 621
- Relative tolerance rate as compared to a non-transgenic Arabidopsis plant (non-transgenic = 1.0) ([2]; transgenic Arabidopsis AMATU_PPO2_R128A_F420L): 717
- Relative tolerance rate as compared to a non-transgenic Arabidopsis plant (non-transgenic = 1.0) ([2]; transgenic Arabidopsis AMATU_PPO2_R128L): 186
- Relative tolerance rate as compared to a non-transgenic Arabidopsis plant (non-transgenic = 1.0) ([2]; transgenic Arabidopsis AMATU_PPO2_dG210): 203
- Relative tolerance rate as compared to a non-transgenic Arabidopsis plant (non-transgenic = 1.0) ([2]; transgenic Arabidopsis AMATU_PPO2_dG210_R128L): 244
